Results as given in US20140316007A1 (RICHTER GEDEON NYRT., priority 2011, published 2014).
Like-named read-outs stand apart in the source and are kept apart here.

Columns and labels:
[1] = mouse diet-induced obesity (DIO) test, weight loss; format: in vivo; conditions: two weeks, obese C57B16 mice
Procedure: The experiments were performed using a diet-induced obesity (DIO) test. The DIO test is a widely accepted animal model of human obesity well mimicking the development and course of the disease, its comorbidities as well as its response to pharmacological medications (Hariri and Thibault Nutr. Res. Rev. 23:270-299 2010). Young (22-25 g) male C57B16 mice were fed with high-fat diet (e.g. D12492, Research Diets Inc., New Brunswick, N.J., USA), thus these animals became obese compared to mice kept on a control diet. The body weights of control and obese mice were 31.84±0.89 and 45.74±0.78 g, respectively, in the first experiment (n=8 per group, mean±SEM). These values were 30.47±0.58 and 45.38±0.61 g (n=20 per group) in the second experiment, and 27.61±0.34 and 41.00±0.91 (n=8 per group) in the third experiment (Study 2). Then the animals were assigned to different groups and treated with different vehicles or test compounds. Test compounds were dissolved in water and administered per os twice daily in a volume of 10 ml/kg of body weight. The animals were weighed daily during the experiments. The percent weight loss of each animal compared the baseline body weight was calculated at the end of the two-week-long experiment. The average percent weight change of the vehicle group was subtracted from the percent weight change of each animal, thus the vehicle-corrected weight loss was calculated. The statistical evaluation of results included descriptive statistics (mean and standard error). Furthermore, statistical significance of differences between groups was evaluated using one-way or factorial ANOVA test followed by Duncan's post-hoc test. Interactions between different treatments (i.e. combination of drugs) were evaluated using factorial ANOVA test.
Baclofen caused a body weight loss of 3.2%, which was statistically non-significant. […] The doses shown in FIG. 1 were administered per os twice daily. The results are shown as mean±SE of percent vehicle-corrected weight loss. There were no statistical differences between the other three groups. (Number of animals: n=8 per group, except the memantine group, where n=7.)
We have also tested the combination of phentermine and baclofen. In the study investigating the effects of 2.5 mg/kg phentermine and 2 mg/kg baclofen, both drugs decreased the body weight moderately (by 5.4% and 3.6%, respectively). […] There was no significant difference between the groups (including the vehicle group as well). […] Data in FIG. 3 are presented as mean±SE of percent vehicle-corrected weight loss.

[2] = spontaneous horizontal motor activity of mice (LABORAS); format: in vivo; conditions: 12-hour light phase, C57B16J mice
Description: NMDA receptor antagonists are known to cause dose-dependent behavioral activation in rodents, which is manifested in increased locomotor activity (Sukhanov et al. Behav. Pharmacol. 15:263-271 2004). This behavior may correspond to side effects observed in the clinical practice, such as agitation and restlessness, which are rarely seen with memantine. We have studied the modulating effect of baclofen on the locomotor activity increasing effect of memantine when administered to mice in combination. Groups of male C57B16J mice (25-32 g; Wobe-Harlan, Hungary; 8-10 mice/group) were treated orally with 2 mg/kg baclofen, 2.5 mg/kg memantine or their combination or vehicle (distilled water) twice daily during the light phase of diurnal light-dark cycle. After one day of habituation, the activity of the animals was recorded continuously for 24 hours on the first and 14th day of treatment using an automated behavioral activity measurement system (LABORAS, Metris, Netherlands). However, only the data from the light phase (12 hours) are shown. The animals were housed individually during the whole experiment in their home cages, which enabled the activity recording as well. The mechanical vibrations and gravity related static signals evoked by the movement of the animals were transformed to an electrical signal by the system, and these recorded signals were evaluated off-line by a computer algorithm (Quinn et al. J. Neurosci. Methods 130:83-92 2003). The behavior of the mice was categorized by the software as locomotor activity, immobility, climbing and grooming. […] Statistical analysis was performed using ANOVA followed by Tukey's post hoc test. The statistical significance of effects of drug treatments was calculated compared to vehicle and also compared to other drug-treated groups.

[3] = dose gradually increased to 20 mg/day, 16 obese binge eater patients; cited from earlier work
rotarod test in mice = conditions: male, NMRI, mouse, in vivo, po
Description: The rotarod test is a widely used simple and objective method to detect the side effects affecting motor function in rodents. This method is also capable for sensitive detection of a central muscle relaxant effect, which is a pharmacological feature of both memantine and baclofen (Farkas et al. J. Pharmacol. Toxicol. Methods 52:264-273 2005). However, other CNS side effects (e.g. sleepiness, disturbances in coordination) also impair rotarod performance. Therefore this method was used to assess liability of the combination memantine and baclofen to produce unwanted side effects.
Mice were placed on a rod rotating with a constant speed of 12 rpm. After training, i.e. after habituation to the rotarod three times for 120 seconds on the previous day, the mice are usually able to run on the rod for 120 seconds without falling down. Immediately before the treatment with the test compounds, the mice were tested and only those able to stay on the rod for 120 seconds were involved to the experiment. Test compounds were dissolved in distilled water (vehicle) and administered orally to groups of ten male NMRI mice (20-24 g). One group was treated with vehicle in each experimental session. […] We calculated the mean latency to fall in each group and the percent change relative to the latency in the vehicle group. […]

[4] = recommended dosing regimen; cited from earlier work
[5] = cited from earlier work
[6] = 30 mg/day, 12 weeks, cited from earlier work
[7] = targeted dose 60 mg/day, within 10 weeks, binge eating patients; cited from earlier work

CC(C)(N)Cc1ccccc1 [phentermine]
vehicle-corrected body weight loss ([1]; Study 2, 2.5 mg/kg phentermine per os twice daily): 5.4%

CC12CC3CC(C)(C1)CC(N)(C3)C2 [memantine]
horizontal motor activity vs vehicle ([2]; 2.5 mg/kg memantine orally twice daily, 14th day of treatment): statistically significantly (p<0.05) increased | horizontal motor activity vs vehicle ([2]; 2.5 mg/kg memantine orally twice daily, first day of treatment): did not reach statistical significance | effect on binge episodes and body weight [3]: decreased the number of binge episodes but not the body weight | ED50 at 60 min (rotarod test in mice): 16.1 ± 1.7 mg/kg | vehicle-corrected body weight loss ([1]; Study 1, first experiment, 2.5 mg/kg memantine per os twice daily): 0.1% | side effect rate: dizziness [4]: 0.8% | side effect rate: nausea [4]: 0.9% | side effect rate: restlessness [4]: 1.3% | side effect rate: tiredness [4]: 0.4%

C[C@H]1CNCCc2ccc(Cl)cc21 [lorcaserin]
weight loss relative to baseline ([5]; after 1-year-long treatment): 5.8% | weight loss relative to baseline ([5]; at 12 weeks): 3.5-4%

NCC(CC(=O)O)c1ccc(Cl)cc1 (racemic) [baclofen]
horizontal motor activity vs vehicle ([2]; 2 mg/kg baclofen orally twice daily, 14th day of treatment): neither baclofen alone, nor the combination altered the motor activity | horizontal motor activity vs vehicle ([2]; 2 mg/kg baclofen orally twice daily, first day of treatment): neither baclofen alone, nor the combination altered the motor activity | ED50 at 60 min (rotarod test in mice): 18.3 ± 3.3 mg/kg | vehicle-corrected body weight loss ([1]; Study 1, first experiment, 2 mg/kg baclofen per os twice daily): 3.2% | vehicle-corrected body weight loss ([1]; Study 2, 2 mg/kg baclofen per os twice daily): 3.6% | mean body weight loss ([6]; 10 obese patients): 1.7% | participants (out of 10) who lost more than 5% body weight [6]: one | mean body weight increase [7]: 0.9 kg
